Reference: patent US20260250320A1, “LIPIDATED PEPTIDE INHIBITORS OF INTERLEUKIN-23 RECEPTOR” (Janssen Pharmaceutica NV, priority 2023, published 2026)
*1 amine or outer side, *2 acyl side, *3 side chain or, on linkers, in order; H or OH if unused. Where a SMILES comes first, the peptide text is derived from it. Bridges are numbered along the chain shown (N, C = ends). Roman numbers before positions name the chains, in order. Side-chain parts run from the residue outwards. [ ]: non-standard residue; d: D form. The star is where a group is joined. ξ: configuration not given here. X25 = C[N+](C)(C)C[C@@H](CC(=O)O)NC(=O)CCC(=O)CCCCC[C@H](N[*:1])C(=O)[*:2]; X19 = CC(C)(S[*:2])[C@H](N[*:3])C(=O)C[C@@H](Cc1ccc(OCCN)cc1)C(=O)[*:1]; Trp(7-Me) = Cc1cccc2c(C[C@H](N)C(=O)O)c[nH]c12; d(γGlu) = O=C(O)[C@@H](CCC(=O)[*:2])N[*:1]; C18 diacid = O=C(O)CCCCCCCCCCCCCCCCC(=O)*; γGlu = O=C(O)[C@H](CCC(=O)[*:2])N[*:1]; 2Nal = N[C@@H](Cc1ccc2ccccc2c1)C(=O)O; AEF = NCCOc1ccc(C[C@H](N)C(=O)O)cc1; X2 = C[N+](C)(C)C[C@@H](CC(=O)O)N*; 3Pal = N[C@@H](Cc1cccnc1)C(=O)O; NMeK = CN[C@@H](CCCCN)C(=O)O; Pen = CC(C)(S)[C@H](N)C(=O)O; Suc = O=C(CCC(=O)[*:2])[*:1]; Thp = NC1(C(=O)O)CCOCC1; AEEA = NCCOCCOCC(=O)O; ξK = NCCCCC(N)C(=O)O; Sar = CNCC(=O)O

What was measured:
IL-23R = biological target: T1, IL-23R (Homo sapiens, UniProt Q5VWK5); test: IL23R Reporter Assay; assay type: cell-based; conditions: HEK293 cells containing IL-23R, IL-12Rβ1 and STAT-inducible firefly luciferase reporter; 10 ng/mL IL-23 (EC90); 5 h
T1 construct: HEK293 cells containing IL-23R, IL-12Rβ1 and a firefly luciferase reporter gene driven by a STAT-inducible promoter (Promega); host or cells: HEK293
T1 sequence (Q5VWK5 24-629): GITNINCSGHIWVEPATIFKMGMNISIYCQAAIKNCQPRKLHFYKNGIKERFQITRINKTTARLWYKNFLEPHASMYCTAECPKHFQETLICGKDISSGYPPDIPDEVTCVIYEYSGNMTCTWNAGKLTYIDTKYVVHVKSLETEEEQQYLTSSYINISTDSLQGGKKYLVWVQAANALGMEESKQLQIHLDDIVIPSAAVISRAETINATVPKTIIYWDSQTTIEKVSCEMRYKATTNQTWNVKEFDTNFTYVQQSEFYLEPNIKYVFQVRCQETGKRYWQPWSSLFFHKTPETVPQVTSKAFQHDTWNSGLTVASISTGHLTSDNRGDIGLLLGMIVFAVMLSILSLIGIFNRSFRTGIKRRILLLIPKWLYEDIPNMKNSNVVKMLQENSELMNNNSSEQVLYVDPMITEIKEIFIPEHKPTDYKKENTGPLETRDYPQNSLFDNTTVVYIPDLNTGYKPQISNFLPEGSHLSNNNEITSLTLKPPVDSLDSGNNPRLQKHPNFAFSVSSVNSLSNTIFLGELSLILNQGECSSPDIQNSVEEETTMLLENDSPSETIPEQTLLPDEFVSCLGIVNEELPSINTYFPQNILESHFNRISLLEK
Outline: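 IC50 values were fitted with a 4-parameter Hill equation to luciferase signal, scaled between IL-23-only wells (0% inhibition) and 30 μM reference inhibitor (100%). The readout was a STAT-inducible reporter in IL-23R/IL-12Rβ1 HEK293 cells, stimulated with added 10 ng/mL IL-23 (EC90) for 5 h at 37° C and developed with BioGlo.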

[1] = tested on: IL-23-stimulated phosphorylated STAT3 in peripheral blood mononuclear cells (PBMCs); test: PBMC pSTAT3 Assay; assay type: cell-based; conditions: PBMCs from healthy donors; 30 min preincubation with peptide; IL-23 5 ng/mL for 30 min; phospho-STAT3 by MSD
Outline: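 Phospho-STAT3 quantified by Meso Scale assay in lysates of PBMCs exposed to IL-23 (5 ng/mL, 30 min, 37 °C) after 30 min peptide pretreatment. Cells were cryopreserved donor PBMCs activated 4 days with anti-CD3 plus IL-1β (100 ng/mL) and starved ~4 h; IC50 reported.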

Row | IC50 (IL-23R) [µM] | SMILES | IC50 [1] [µM]
1 | 0.05 to 0.5 | CC(=O)NCCCC[C@@H]1NC(=O)[C@H](Cc2c[nH]c3c(C)cccc23)NC(=O)[C@H]([C@@H](C)O)NC(=O)[C@H](CC(N)=O)NC(=O)[C@@H](NC(=O)[C@@H](CCCNC(=N)N)NC(=O)CCC(=O)N[C@H](CC(=O)O)C[N+](C)(C)C)C(C)(C)SSC(C)(C)[C@@H](C(=O)N[C@@H](Cc2ccc(OCCN)cc2)C(=O)N[C@@H](Cc2ccc3ccccc3c2)C(=O)NC2(C(=O)N[C@@H](CCC(=O)O)C(=O)N[C@@H](CC(N)=O)C(=O)N[C@@H](Cc3cccnc3)C(=O)N(C)[C@@H](CCCCNC(=O)COCCOCCNC(=O)COCCOCCNC(=O)CC[C@H](NC(=O)CCCCCCCCCCCCCCCCC(=O)O)C(=O)O)C(N)=O)CCOCC2)NC1=O [compound 31, succiniccarn-r-Pen(3)-N-T-7MeW-K(Ac)-Pen(3)-AEF-2Nal-THP-E-N-3Pya-NMeK(PEG2PEG2gEC18OH)-CONH2] ({X2-Suc}-[dR][Pen]NT[Trp(7-Me)]K(Ac)[Pen][AEF][2Nal][Thp]EN[3Pal][NMeK]([AEEA-AEEA-γGlu-C18 diacid])-NH2; disulfide 2-7) | < 0.0005
2 | 0.05 to 0.5 | CC(=O)NCCCC[C@@H]1NC(=O)[C@H](Cc2c[nH]c3c(C)cccc23)NC(=O)[C@H]([C@@H](C)O)NC(=O)[C@H](CC(N)=O)NC(=O)[C@@H](NC(=O)[C@H](CCCCNC(=O)COCCOCCNC(=O)COCCOCCNC(=O)CC[C@H](NC(=O)CCCCCCCCCCCCCCCCC(=O)O)C(=O)O)CCCNC(=N)N)C(C)(C)SSC(C)(C)[C@@H](C(=O)N[C@@H](Cc2ccc(OCCN)cc2)C(=O)N[C@@H](Cc2ccc3ccccc3c2)C(=O)NC2(C(=O)N[C@@H](CCCCNC(=O)CCC(=O)N[C@H](CC(=O)O)C[N+](C)(C)C)C(=O)N[C@@H](CC(N)=O)C(=O)N[C@@H](Cc3cccnc3)C(=O)N(C)CC(N)=O)CCOCC2)NC1=O [compound 32, HOC18gEPEG2PEG2CO-r-Pen(3)-N-T-7MeW-K(Ac)-Pen(3)-AEF(d)-2Nal-THP-E-N-3Pya-Sar-CONH2] | < 0.0005
3 | < 0.05 | CC(=O)NCCCC[C@@H]1NC(=O)[C@H](Cc2c[nH]c3c(C)cccc23)NC(=O)[C@H]([C@@H](C)O)NC(=O)[C@H](CC(N)=O)NC(=O)[C@@H](NC(=O)[C@@H](CCCCNC(=O)COCCOCCNC(=O)COCCOCCNC(=O)CC[C@H](NC(=O)CCCCCCCCCCCCCCCCC(=O)O)C(=O)O)NC(C)=O)C(C)(C)SSC(C)(C)[C@@H](C(=O)N[C@@H](Cc2ccc(OCCN)cc2)C(=O)N[C@@H](Cc2ccc3ccccc3c2)C(=O)NC2(C(=O)N[C@@H](CCCCNC(=O)CCC(=O)N[C@H](CC(=O)O)C[N+](C)(C)C)C(=O)N[C@@H](CC(N)=O)C(=O)N[C@@H](Cc3cccnc3)C(=O)N(C)CC(N)=O)CCOCC2)NC1=O [compound 33, MeCO-k(PEG2PEG2gEC18OH)-Pen(3)-N-T-7MeW-K(Ac)-Pen(3)-AEF-2Nal-THP-K(d)-N-3Pya-Sar-CONH2] (Ac-[dK]([AEEA-AEEA-γGlu-C18 diacid])[Pen]NT[Trp(7-Me)]K(Ac)[Pen][AEF][2Nal][Thp]K([Suc-X2])N[3Pal][Sar]-NH2; disulfide 2-7) | < 0.0005
4 | < 0.05 | CC(=O)NCCCC[C@@H]1NC(=O)[C@H](Cc2c[nH]c3c(C)cccc23)NC(=O)[C@H]([C@@H](C)O)NC(=O)[C@H](CCCCCC(=O)CCC(=O)N[C@H](CC(=O)O)C[N+](C)(C)C)NC(=O)[C@@H](NC(=O)[C@@H](CCCNC(=N)N)NC(C)=O)C(C)(C)SSC(C)(C)[C@@H](C(=O)C[C@@H](Cc2ccc(OCCN)cc2)C(=O)N[C@@H](Cc2ccc3ccccc3c2)C(=O)NC2(C(=O)N[C@@H](CCCCNC(=O)COCCOCCNC(=O)COCCOCCNC(=O)CC[C@H](NC(=O)CCCCCCCCCCCCCCCCC(=O)O)C(=O)O)C(=O)N[C@@H](CC(N)=O)C(=O)N[C@@H](Cc3cccnc3)C(=O)N(C)CC(N)=O)CCOCC2)NC1=O [compound 37, MeCO-r-Pen(3)-K(d)-T-7MeW-K(Ac)-Pen(3)-AEF-2Nal-THP-K(PEG2PEG2gEC18OH)-N-3Pya-Sar-CONH2] (I: [2Nal][Thp]K([AEEA-AEEA-γGlu-C18 diacid])N[3Pal][Sar]-NH2 / II: Ac-[dR][Pen][X25]T[Trp(7-Me)]K(Ac); linker I:N-II:2-II:C via X19) | < 0.0005

Further lines, the compound ahead of its results:

Row | SMILES | IC50 (IL-23R) [µM] | IC50 [1] [µM]
5 | CC(=O)NC(CCCCNC(=O)COCCOCCNC(=O)COCCOCCNC(=O)CC[C@@H](NC(=O)CCCCCCCCCCCCCCCCC(=O)O)C(=O)O)C(=O)N[C@@H]1C(=O)N[C@@H](CC(N)=O)C(=O)N[C@@H]([C@@H](C)O)C(=O)N[C@@H](Cc2c[nH]c3c(C)cccc23)C(=O)N[C@@H](CCCCNC(=O)CCC(=O)N[C@H](CC(=O)O)C[N+](C)(C)C)C(=O)N[C@H](C(=O)N[C@@H](Cc2ccc(OCCN)cc2)C(=O)N[C@@H](Cc2ccc3ccccc3c2)C(=O)NC2(C(=O)N[C@@H](CCC(=O)O)C(=O)N[C@@H](CC(N)=O)C(=O)N[C@@H](Cc3cccnc3)C(=O)N(C)CC(N)=O)CCOCC2)C(C)(C)SSC1(C)C (stereo partly drawn) [compound 34, MeCO-k(PEG2PEG2gEC18OH)-Pen(3)-N-T-7MeW-K(d)-Pen(3)-AEF-2Nal-THP-E-N-3Pya-Sar-CONH2] (Ac-[ξK]([AEEA-AEEA-d(γGlu)-C18 diacid])[Pen]NT[Trp(7-Me)]K([Suc-X2])[Pen][AEF][2Nal][Thp]EN[3Pal][Sar]-NH2; disulfide 2-7) | < 0.05 | < 0.0005
6 | CC(=O)N[C@H](CCCNC(=N)N)C(=O)N[C@@H]1C(=O)N[C@@H](CC(N)=O)C(=O)N[C@@H]([C@@H](C)O)C(=O)N[C@@H](Cc2c[nH]c3c(C)cccc23)C(=O)N[C@@H](CCCCNC(=O)COCCOCCNC(=O)COCCOCCNC(=O)CC[C@H](NC(=O)CCCCCCCCCCCCCCCCC(=O)O)C(=O)O)C(=O)N[C@H](C(=O)N[C@@H](Cc2ccc(OCCNC(=O)CCC(=O)N[C@H](CC(=O)O)C[N+](C)(C)C)cc2)C(=O)N[C@@H](Cc2ccc3ccccc3c2)C(=O)NC2(C(=O)N[C@@H](CCC(=O)O)C(=O)N[C@@H](CC(N)=O)C(=O)N[C@@H](Cc3cccnc3)C(=O)N(C)CC(N)=O)CCOCC2)C(C)(C)SSC1(C)C [compound 36, MeCO-r-Pen(3)-N-T-7MeW-K(PEG2PEG2gEC18OH)-Pen(3)-AEF(d)-2Nal-THP-E-N-3Pya-Sar-CONH2] (Ac-[dR][Pen]NT[Trp(7-Me)]K([AEEA-AEEA-γGlu-C18 diacid])[Pen][AEF]([Suc-X2])[2Nal][Thp]EN[3Pal][Sar]-NH2; disulfide 2-7) | 0.05 to 0.5 | < 0.0005
7 | CC(=O)N[C@H](CCCNC(=N)N)C(=O)N[C@@H]1C(=O)N[C@@H](CC(N)=O)C(=O)N[C@@H]([C@@H](C)O)C(=O)N[C@@H](Cc2c[nH]c3c(C)cccc23)C(=O)N[C@@H](CCC(N)=O)C(=O)N[C@H](C(=O)N[C@@H](Cc2ccc(OCCN)cc2)C(=O)N[C@@H](Cc2ccc3ccccc3c2)C(=O)NC2(C(=O)N[C@@H](CCC(=O)O)C(=O)N[C@@H](CC(N)=O)C(=O)N[C@@H](Cc3cccnc3)C(=O)N(C)CC(=O)N[C@@H](CCCCNC(=O)COCCOCCNC(=O)COCCOCCNC(=O)CC[C@H](NC(=O)CCCCCCCCCCCCCCCCC(=O)O)C(=O)O)C(=O)O)CCOCC2)C(C)(C)SSC1(C)C [compound 38, MeCO-r-Pen(3)-N-T-7MeW-Q-Pen(3)-AEF-2Nal-THP-E-N-3Pya-Sar-K(PEG2PEG2gEC18OH)-CONH2] (Ac-[dR][Pen]NT[Trp(7-Me)]Q[Pen][AEF][2Nal][Thp]EN[3Pal][Sar]K([AEEA-AEEA-γGlu-C18 diacid])-OH; disulfide 2-7) | < 0.05 | < 0.0005
